Experimental data from US6713051B2, “Antiperspirant or deodorant compositions” (Unilever Home & Personal Care USA division of Conopco, Inc., priority 2001, dated 2004).

What was measured:
Format in all cases: cell-based
[1] = biological target: T1, human PPARα (Homo sapiens, UniProt Q07869); test: PPARα reporter gene assay (firefly luciferase, transiently transfected Cos-7 cells); conditions: for Pass at (lowest tested administration level at which the test material passed): pass = activation greater than oleic acid at 100 μM, commonly >1.57 times vehicle control, 24 h treatment; for Result (superior activity class achieved): class reached
T1 construct: The coding region of a human PPARα cDNA was inserted downstream of the CMV promoter; expressed in transfected cells; host or cells: Cos-7 cells, transient transfection (pcDNA3.1(−)-PPARα, pRSV-RXRα, 3xPPRE-TK-luc reporter, pRL-TK)
T1 sequence (Q07869 1-468): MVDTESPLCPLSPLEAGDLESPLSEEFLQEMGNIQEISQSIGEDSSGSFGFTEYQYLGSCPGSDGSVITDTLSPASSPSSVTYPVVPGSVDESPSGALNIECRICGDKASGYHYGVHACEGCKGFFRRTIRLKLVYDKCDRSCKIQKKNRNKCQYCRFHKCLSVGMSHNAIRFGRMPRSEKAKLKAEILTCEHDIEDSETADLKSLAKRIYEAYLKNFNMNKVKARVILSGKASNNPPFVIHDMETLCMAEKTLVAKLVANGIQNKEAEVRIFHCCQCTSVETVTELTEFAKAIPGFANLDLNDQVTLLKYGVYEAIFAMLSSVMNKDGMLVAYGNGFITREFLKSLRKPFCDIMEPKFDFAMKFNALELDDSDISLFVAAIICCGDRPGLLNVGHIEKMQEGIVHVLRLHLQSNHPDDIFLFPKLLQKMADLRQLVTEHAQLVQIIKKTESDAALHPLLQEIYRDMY
T1 sequence (P19793 1-462 partner): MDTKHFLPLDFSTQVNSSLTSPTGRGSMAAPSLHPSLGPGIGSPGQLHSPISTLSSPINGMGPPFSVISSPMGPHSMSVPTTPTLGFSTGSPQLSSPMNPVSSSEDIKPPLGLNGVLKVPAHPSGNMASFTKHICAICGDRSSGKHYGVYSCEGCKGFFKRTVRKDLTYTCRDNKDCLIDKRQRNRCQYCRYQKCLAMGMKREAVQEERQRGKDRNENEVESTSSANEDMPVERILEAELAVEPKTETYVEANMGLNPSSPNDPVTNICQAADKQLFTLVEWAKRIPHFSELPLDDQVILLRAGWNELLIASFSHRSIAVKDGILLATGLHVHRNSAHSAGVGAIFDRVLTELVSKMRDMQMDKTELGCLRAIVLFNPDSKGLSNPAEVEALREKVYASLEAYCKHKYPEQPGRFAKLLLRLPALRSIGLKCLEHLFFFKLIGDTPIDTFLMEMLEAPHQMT
Text: One convenient reporter assay for determining whether a fatty acid material is PPARα activating is based upon the firefly luciferase gene.
Fatty acids were screened to identify PPAR activating fatty acids using a reporter assay.
This assay relied on ligands binding to and activating the PPARα protein, which, in turn, activated genes under the control of PPAR response elements (PPRE). In the assay, the firefly luciferase gene was cloned behind a promoter containing 3 copies of the fatty acid binding protein PPRE.
The assay was performed by transient transfection of Cos-7 cells with a mixture of four DNA plasmids. These were:
1) PPAR reporter gene construct (Modified pNF-KB-luc reporter vector (Firefly luciferase reporter vector commercially available form Clontech (NF-kB response element, TK minimal promoter, luc^+, f1 origin, pUC origin, amp^r)). A tandem repeat of 3 PPAR response elements (PPREs) corresponding to the PPRE found in the fatty acid binding protein promoter was inserted upstream of the minimal TK promoter to replace the NF-κB response element);
2) 2) Over-expressing PPARα construct (Modified pcDNA3.1(−) vector (A mammalian expression vector commercially available from Invitrogen (CMV promoter, f1 origin, SV40 origin, ColE1 origin, neo^r, amp^r)). The coding region of a human PPARα cDNA was inserted downstream of the CMV promoter of pcDNA3.1 (−)). […] The coding region of a human RXRα cDNA has been inserted downstream of the RSV promoter. (Gift of V. K. K. Chatterjee, Addenbrooke's Hospital, Cambridge)) 4) Control luciferase construct (pRL-TK Renilla luciferase reporter vector commercially available from Promega (HSV-TK promoter, T7 promoter, Rluc^+, ori, amp^r)). For the transfection, DNA was made up as a mix of PPAR reporter gene: PPARα: RXRα: control in the ratio 40:4:3:3.
Cos-7 cells were grown in Dulbecco's modified Eagle's Medium, also herein referred to as DMEM with 10% foetal calf serum, herein also referred to as FCS at 37° C., 5% CO2 to 80% confluency. Cells were then plated out in 24 well plates at 50,000 cells per well and incubated overnight in DMEM with 10% FCS at 37° C., 5% CO2. Cells were then transfected using the LipofectAMINE reagent (GibcoBRL). For each well 0.4 μg of DNA mix (in 25 μl of DMEM) was incubated with 1 μl LipofectAMINE (in 25 μl of DMEM) for 45 minutes. The mixture was then made up to 250 μl per well and added to the cells, which had been washed with 1 ml of DMEM. Cells were then incubated for 5 hours at 37° C., 5% CO2 and 250 μl DMEM with 10% SBCS (charcoal stripped bovine calf serum) added. Cells were incubated for 18 hours at 37° C., 5% CO2 before being treated with the appropriate compound/extract. Test compounds were made up as 1000× stocks (in DMSO or ethanol as appropriate) and diluted into DMEM with 10% SBCS (500 μl per well) immediately before being added to cells. Each treatment was performed in triplicate. The transfection mix was removed from the cells and replaced with the treatment mix, and incubated for 24 hours at 37° C., 5% CO2. Cells were washed with 1 ml of PBS (without calcium or magnesium) and then lysed with 100 μl per well of 1× Passive Lysis Buffer (as supplied with Promega Dual Luciferase assay kit). Lysis was allowed to continue for 15 minutes and then the lysate was assayed for Firefly and Renilla luciferase activity using the Promega Dual Luciferase assay kit. For the assay, 20 μl of lysate was taken and assayed as described in the kit instructions using a MLX microtiter™ plate luminometer (Dynex).
Firefly luciferase activity (PPAR driven) was normalised against the Renilla luciferase value for that well and the mean calculated for the three wells treated with the same agent. Activity was then expressed as fold activation over the vehicle (DMSO or ethanol) control values for that particular plate.

[2] = tested on: Human foreskin keratinocytes; test: Keratinocyte cornified envelope assay; conditions: for Cornified envelopes assay: 4 days, control (0 μM) 22831
Description: (§1) Human foreskin keratinocytes (passage 3) were seeded at 4000 cells/well in 96 well plates in Keratinocyte Growth Medium (abbreviated to KGM) containing 0.03 mM calcium and grown for 3 days at 37° C. The cells were then treated with PPAR ligands in KGM containing 0.03 mM calcium for 4 days prior to harvest. Stock solutions of PPAR ligands were dissolved in dimethylsulphoxide (DMSO) and diluted in KGM before adding to the cells. […] The harvested cells were washed 3× in phosphate buffered saline (PBS) and extracted in 1% Triton X100, 50 mM (tris[hydroxymethyl]aminomethane) (Tris) pH 8.0 plus protease inhibitors pepstatin and leupeptin (100 μl/well). The extract was assayed for DNA content using the Pico Green DNA assay (Molecular Probes, Inc.).
After Tris-triton extraction for TGase assay, the cells were extracted with 100 μl/well of 2% SDS, 20 mM DTT for 16 hours at 60° C. Once extracted the SDS suspension from each well was individually filtered through polyviylidenefluoride (PVDF) membrane (Immobilon-P™ Transfer Membrane, Millipore) which had been pre-blocked in Tris Buffered Saline (TBS) containing 0.5% (v/v) Tween 20, 0.5% using a Dot Blot TM Apparatus (Bio-Rad). Each sample was washed several times with TBS/Tween buffer before the membrane was removed from the apparatus, rinsed in distilled water and silver stained using silver stain kit (Bio-Rad). The stained dot blot membrane was scanned and analysed using Phoretix Array™ software.
Cultured keratinocytes were treated with pinoleic acid for 4 days. The cells were extracted with 2% SDS, 20 mM DTT and the cornified envelopes were quantified, after filtration using a PDVF membrane, by silver staining, as described above.

[3] = tested on: Human foreskin keratinocytes; test: Keratinocyte proliferation analysis (DNA content per well, Pico Green); conditions: for DNA: 4 days, control (0 μM) 14.46
Description: as §1
Cultured keratinocytes were treated with cis-9-trans-11 conjugated linoleic acid (CT-CLA) for 4 days. The cells were extracted with Tris-1% Triton X100 and the DNA content per well was determine by the Pico Green assay in accordance with the above described procedure.

[4] = tested on: interleukin-6 (IL-6); test: Skin organotypic culture analysis: AP-induced IL-6 release into the medium; conditions: for IL-6: 24 h, Nil 51.7, AP 118.8
Description: (§2) The cultures were then incubated at 37° C., 5% CO2, and 95% relative humidity (standard cell culture conditions) for 24 h. The culture medium was assayed for the pro-inflammatory cytokine interleukin-6 (IL-6) and after washing to remove the AP formulation, the viability of the culture was determined using the Thiazoyl blue (MTT) assay (Mosmann, T. J. Immunol. Methods 65, p55 (1983). IL-6 was determined using an Immunoassay (Quantikine, R&D systems).
In this Example, skin organotypic cultures (Epiderm™, MatTek, USA) were treated topically with the above-identified AP formulation and the trans-10-cis-12 conjugated linoleic acid (TC CLA) was introduced into the medium. The cultures were then incubated at 37° C., 5% CO2, and 95% relative humidity (standard cell culture conditions) for 24 h. The culture medium was assayed for the pro-inflammatory cytokine interleukin-6 (IL-6) and after washing to remove the AP formulation, the viability of the culture was determined by the method described in Example 2.
as §2, with “hours.” for “h.”, “MTT assay.” for “Thiazoyl blue (MTT) assay (Mosmann, T. J. Immunol. Methods 65, p55 (1983).”, “ELISA assay (R&D” for “Immunoassay (Quantikine, R&D”

Pass at (lowest tested administration level at which the test material passed) [1] [μm]	Result at (lowest administration level at which super or MS activity was achieved) [1] [μm]	Structure (SMILES)	Result (superior activity class achieved) [1]	also measured
100	100	CCCCCC=CCC=CCC=CC/C=C\CCCCCC(=O)O [cis-7,10,13,16 docosatetraenoic acid]	super (superior activity [super] (50% higher—at least 2.25 times PPARα activation))	
10	100	Cc1cccc(Nc2cc(Cl)nc(SCC(=O)O)n2)c1C [WY14,643, reference compound]	super (superior activity [super] (50% higher—at least 2.25 times PPARα activation))	
10	25	CCCCCC[C@@H](O)C/C=C/CCCCCCCC(=O)O [Ricinolaidic acid, ricinolaidic acid]	MS (more superior activity [MS] (100% higher—at least 3 times PPARα activation))	
100		CCC=CCC=CC/C=C\CCCCCCCCCCCC(=O)O [cis-13,16,19 docosatrienoic acid]		
50	100	CCCCC/C=C\C=C\CCCCCCCCC(=O)O [CLA (t10, c12), trans-10-cis-12 conjugated linoleic acid]	super (superior activity [super] (50% higher—at least 2.25 times PPARα activation))	AP-induced IL-6 release ([4]; 5 and 500 μM, Dunnet's test p<0.01): significantly decrease; IL-6 ([4]; Table 5: 5 μM in medium + AP): 59.6 pg/mL; IL-6 ([4]; Table 5: 500 μM in medium + AP): 57.1 pg/mL

Structure (SMILES)	Pass at (lowest tested administration level at which the test material passed) [1] [μm]	Result at (lowest administration level at which super or MS activity was achieved) [1] [μm]	Result (superior activity class achieved) [1]	also measured
CCCCC/C=C\C/C=C\CC/C=C\CCCC(=O)O [Pinolenic acid, pinolenic acid]	10			cornified envelope formation, statement ([2]; Example 8: 10 μM, 1 way ANOVA, p<0.05): significantly increase; Cornified envelopes assay ([2]; Table 9: 0.1 μM): 18828 arb. Units; Cornified envelopes assay ([2]; Table 9: 1 μM): 24860 arb. Units; Cornified envelopes assay ([2]; Table 9: 10 μM): 36579 arb. Units; keratinocyte DNA synthesis activity, statement ([3]; Example 11: 10 μM, 1 way ANOVA, p<0.05): significantly reduce; DNA ([3]; Table 12: 0.1 μM): 13.41 ng/well; DNA ([3]; Table 12: 1 μM): 12.95 ng/well; DNA ([3]; Table 12: 10 μM): 12.63 ng/well
CCCCCCCC/C=C/CCCCCCCC(=O)O [Elaidic acid]	100			
